Measurements taken from PubChem BioAssay AID1259407 (Chemical Carcinogenesis Research Information System (CCRIS), 2018).
The source made the active and inactive calls. The rule behind the calls is not given here.

System: CCRIS mutagenicity, Ames/micronucleus/aberration tests
Test: CCRIS mutagenicity studies
[1] = Test System: AMES SALMONELLA TYPHIMURIUM, Strain/Indicator: TA98, Metabolic Activation: NONE, Method: PREINCUBATION
[2] = Test System: AMES SALMONELLA TYPHIMURIUM, Strain/Indicator: TA100, Metabolic Activation: NONE, Method: PREINCUBATION

Measured: mutagenic call

O=S(O)S(=O)O
inactive: Test System: AMES SALMONELLA TYPHIMURIUM, Strain/Indicator: TA97, Metabolic Activation: NONE, Method: PREINCUBATION inactive; negative | Test System: AMES SALMONELLA TYPHIMURIUM, Strain/Indicator: TA97, Metabolic Activation: RAT, LIVER, S-9, AROCLOR 1254, Method: PREINCUBATION inactive; negative | [1] inactive; negative | Test System: AMES SALMONELLA TYPHIMURIUM, Strain/Indicator: TA98, Metabolic Activation: RAT LIVER S-9, PHENOBARBITAL AND BETA-NAPHTHOFLAVONE, Method: PREINCUBATION inactive; negative | Test System: AMES SALMONELLA TYPHIMURIUM, Strain/Indicator: TA98, Metabolic Activation: RAT, LIVER, S-9, KC 500, Method: PREINCUBATION inactive; negative | [2] inactive; negative | Test System: AMES SALMONELLA TYPHIMURIUM, Strain/Indicator: TA100, Metabolic Activation: RAT LIVER S-9, PHENOBARBITAL AND BETA-NAPHTHOFLAVONE, Method: PREINCUBATION inactive; negative | Test System: AMES SALMONELLA TYPHIMURIUM, Strain/Indicator: TA100, Metabolic Activation: RAT, LIVER, S-9, KC 500, Method: PREINCUBATION inactive; negative | Test System: AMES SALMONELLA TYPHIMURIUM, Strain/Indicator: TA102, Metabolic Activation: NONE, Method: PREINCUBATION inactive; negative | Test System: AMES SALMONELLA TYPHIMURIUM, Strain/Indicator: TA102, Metabolic Activation: RAT, LIVER, S-9, AROCLOR 1254, Method: PREINCUBATION inactive; negative | Test System: AMES SALMONELLA TYPHIMURIUM, Strain/Indicator: TA1535, Metabolic Activation: NONE, Method: PREINCUBATION inactive; negative | Test System: AMES SALMONELLA TYPHIMURIUM, Strain/Indicator: TA1535, Metabolic Activation: RAT LIVER S-9, PHENOBARBITAL AND BETA-NAPHTHOFLAVONE, Method: PREINCUBATION inactive; negative | Test System: AMES SALMONELLA TYPHIMURIUM, Strain/Indicator: TA1535, Metabolic Activation: RAT, LIVER, S-9, KC 500, Method: PREINCUBATION inactive; negative | Test System: AMES SALMONELLA TYPHIMURIUM, Strain/Indicator: TA1537, Metabolic Activation: NONE, Method: PREINCUBATION inactive; negative | Test System: AMES SALMONELLA TYPHIMURIUM, Strain/Indicator: TA1537, Metabolic Activation: RAT LIVER S-9, PHENOBARBITAL AND BETA-NAPHTHOFLAVONE, Method: PREINCUBATION inactive; negative | Test System: AMES SALMONELLA TYPHIMURIUM, Strain/Indicator: TA1537, Metabolic Activation: RAT, LIVER, S-9, KC 500, Method: PREINCUBATION inactive; negative | Test System: AMES SALMONELLA TYPHIMURIUM, Strain/Indicator: TA1538, Metabolic Activation: NONE, Method: PREINCUBATION inactive; negative | Test System: AMES SALMONELLA TYPHIMURIUM, Strain/Indicator: TA1538, Metabolic Activation: RAT LIVER S-9, PHENOBARBITAL AND BETA-NAPHTHOFLAVONE, Method: PREINCUBATION inactive; negative | Test System: AMES SALMONELLA TYPHIMURIUM, Strain/Indicator: TA1538, Metabolic Activation: RAT, LIVER, S-9, KC 500, Method: PREINCUBATION inactive; negative | Test System: E. COLI, Strain/Indicator: WP2 UVRA, Metabolic Activation: NONE, Method: PREINCUBATION inactive; negative | Test System: E. COLI, Strain/Indicator: WP2UVRA, Metabolic Activation: NONE, Method: PREINCUBATION inactive; negative | Test System: E. COLI, Strain/Indicator: WP2UVRA, Metabolic Activation: RAT LIVER S-9, PHENOBARBITAL AND BETA-NAPHTHOFLAVONE, Method: PREINCUBATION inactive; negative | Test System: E. COLI, Strain/Indicator: WP2 UVRA, Metabolic Activation: RAT, LIVER, S-9, KC 500, Method: PREINCUBATION inactive; negative

O=C(OC[C@@H]1O[C@H](OC(=O)c2cc(O)c(O)c(OC(=O)c3cc(O)c(O)c(O)c3)c2)[C@@H](OC(=O)c2cc(O)c(O)c(OC(=O)c3cc(O)c(O)c(O)c3)c2)[C@H](OC(=O)c2cc(O)c(O)c(OC(=O)c3cc(O)c(O)c(O)c3)c2)[C@H]1OC(=O)c1cc(O)c(O)c(OC(=O)c2cc(O)c(O)c(O)c2)c1)c1cc(O)c(O)c(OC(=O)c2cc(O)c(O)c(O)c2)c1
inactive: [1] inactive; negative | Test System: AMES SALMONELLA TYPHIMURIUM, Strain/Indicator: TA98, Metabolic Activation: RAT LIVER S-9, Method: PREINCUBATION inactive; negative | [2] inactive; negative | Test System: AMES SALMONELLA TYPHIMURIUM, Strain/Indicator: TA100, Metabolic Activation: RAT LIVER S-9, Method: PREINCUBATION inactive; negative | Test System: AMES SALMONELLA TYPHIMURIUM, Strain/Indicator: TA102, Metabolic Activation: RAT LIVER S-9, PHENOBARBITAL AND 5,6-BENZOFLAVONE, Method: STANDARD PLATE inactive; negative | Test System: AMES SALMONELLA TYPHIMURIUM, Strain/Indicator: TA2638, Metabolic Activation: RAT LIVER S-9, PHENOBARBITAL AND 5,6-BENZOFLAVONE, Method: STANDARD PLATE inactive; negative | Test System: E. COLI, Strain/Indicator: WP2 (PKM101), Metabolic Activation: RAT LIVER S-9, PHENOBARBITAL AND 5,6-BENZOFLAVONE, Method: STANDARD PLATE inactive; negative | Test System: E. COLI, Strain/Indicator: WP2 UVRA (PKM101), Metabolic Activation: RAT LIVER S-9, PHENOBARBITAL AND 5,6-BENZOFLAVONE, Method: STANDARD PLATE inactive; negative
